Measured values taken from PMC7484799, “Evolution of isoprenyl diphosphate synthase-like terpene synthases in fungi” (Scientific Reports, 2020).

Assays:
MlpGGDPS = biological target: T1, MlpGGDPS (Melampsora laricis-populina, UniProt A0A858E7G0); assay: radiochemical IDS assay, TLC; format: biochemical; conditions: MOPS pH 7.0, 10 mM MgCl2, 30 °C; co-substrate [1-14C]-IDP; product GGDP
T1 construct: gene GGDPS; full-length cDNA from infected Populus nigra leaves in pET-32a, N-terminal His-tag, E. coli BL21(DE3) pLysS
T1 sequence (A0A858E7G0 1-364): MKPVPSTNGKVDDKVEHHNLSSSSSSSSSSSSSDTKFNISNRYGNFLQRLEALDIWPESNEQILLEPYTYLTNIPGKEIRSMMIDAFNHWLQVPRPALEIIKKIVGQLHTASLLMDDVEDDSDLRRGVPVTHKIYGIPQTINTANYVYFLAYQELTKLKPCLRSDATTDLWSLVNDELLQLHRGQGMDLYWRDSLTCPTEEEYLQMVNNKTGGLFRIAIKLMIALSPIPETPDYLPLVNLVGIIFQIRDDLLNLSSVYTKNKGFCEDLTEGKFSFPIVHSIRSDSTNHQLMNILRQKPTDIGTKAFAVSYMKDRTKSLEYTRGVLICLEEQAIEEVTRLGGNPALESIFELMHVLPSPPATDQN

MliILTPS1 = biological target: T2, MliILTPS1 (Melampsora lini, UniProt A0A858E7J4); assay: in vitro terpene synthase assay, SPME GC-MS; format: biochemical; conditions: room temperature, 60 min
T2 construct: gene ILTPS1; full-length synthesized cDNA in pET-32a, N-terminal His-tag, E. coli BL21(DE3) pLysS
T2 sequence (A0A858E7J4 1-329): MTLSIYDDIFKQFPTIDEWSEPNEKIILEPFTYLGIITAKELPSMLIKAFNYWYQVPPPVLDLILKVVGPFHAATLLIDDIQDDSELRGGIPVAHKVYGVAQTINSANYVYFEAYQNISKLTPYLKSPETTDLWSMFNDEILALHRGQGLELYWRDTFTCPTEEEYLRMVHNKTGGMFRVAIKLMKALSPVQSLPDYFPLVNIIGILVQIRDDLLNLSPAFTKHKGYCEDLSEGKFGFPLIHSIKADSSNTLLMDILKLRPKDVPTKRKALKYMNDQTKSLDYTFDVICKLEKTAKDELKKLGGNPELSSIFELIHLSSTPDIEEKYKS

MliGGDPS = biological target: T3, MliGGDPS (Melampsora lini, UniProt A0A858E6N7); assay: radiochemical IDS assay, TLC; format: biochemical; conditions: MOPS pH 7.0, 10 mM MgCl2, 30 °C; co-substrate [1-14C]-IDP; product GGDP
T3 construct: gene GGDPS; full-length synthesized cDNA in pET-32a, N-terminal His-tag, E. coli BL21(DE3) pLysS
T3 sequence (A0A858E6N7 1-365): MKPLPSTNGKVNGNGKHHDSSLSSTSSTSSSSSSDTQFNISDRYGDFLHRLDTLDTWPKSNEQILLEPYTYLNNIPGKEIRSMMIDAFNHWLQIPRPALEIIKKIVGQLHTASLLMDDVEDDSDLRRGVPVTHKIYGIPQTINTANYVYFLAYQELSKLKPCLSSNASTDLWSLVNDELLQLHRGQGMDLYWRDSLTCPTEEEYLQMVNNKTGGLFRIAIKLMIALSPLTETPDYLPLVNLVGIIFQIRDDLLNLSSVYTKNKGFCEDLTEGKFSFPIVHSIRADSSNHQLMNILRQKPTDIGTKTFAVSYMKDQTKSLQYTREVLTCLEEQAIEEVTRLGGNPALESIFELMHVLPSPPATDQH

MlpILTPS1 = biological target: T4, MlpILTPS1 (Melampsora laricis-populina, UniProt A0A858E4Y8); assay: in vitro terpene synthase assay, SPME GC-MS; format: biochemical; conditions: room temperature, 60 min
T4 construct: gene ILTPS1; full-length cDNA from infected Populus nigra leaves in pET-32a, N-terminal His-tag, E. coli BL21(DE3) pLysS
T4 sequence (A0A858E4Y8 1-324): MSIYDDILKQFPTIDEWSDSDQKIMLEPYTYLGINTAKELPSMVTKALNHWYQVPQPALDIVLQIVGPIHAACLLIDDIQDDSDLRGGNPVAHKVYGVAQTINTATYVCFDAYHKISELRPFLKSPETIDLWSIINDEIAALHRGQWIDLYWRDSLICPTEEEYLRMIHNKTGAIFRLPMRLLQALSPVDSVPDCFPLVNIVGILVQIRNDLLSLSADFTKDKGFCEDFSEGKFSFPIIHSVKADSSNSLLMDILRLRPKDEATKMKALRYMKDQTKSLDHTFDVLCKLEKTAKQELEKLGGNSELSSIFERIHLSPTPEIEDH

MlpILTPS2 = biological target: T5, MlpILTPS2 (Melampsora laricis-populina, UniProt A0A858E4Y6); assay: in vitro terpene synthase assay, SPME GC-MS; format: biochemical; conditions: room temperature, 60 min
T5 construct: gene ILTPS2; full-length cDNA from infected Populus nigra leaves in pET-32a, N-terminal His-tag, E. coli BL21(DE3) pLysS
T5 sequence (A0A858E4Y6 1-316): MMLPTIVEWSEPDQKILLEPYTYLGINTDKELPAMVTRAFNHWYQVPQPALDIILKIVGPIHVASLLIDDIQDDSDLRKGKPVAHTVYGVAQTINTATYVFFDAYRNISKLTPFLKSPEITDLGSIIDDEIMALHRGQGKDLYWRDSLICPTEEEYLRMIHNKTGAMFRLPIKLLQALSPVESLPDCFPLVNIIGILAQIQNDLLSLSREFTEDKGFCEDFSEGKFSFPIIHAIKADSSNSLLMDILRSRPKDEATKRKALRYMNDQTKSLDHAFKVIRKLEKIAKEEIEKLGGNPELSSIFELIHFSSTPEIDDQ

[1] = substrate: CC(C)=CCC/C(C)=C/CC/C(C)=C/CO[P@@](=O)(O)OP(=O)(O)O; assay: radiochemical terpene synthase assay, hexane extraction; format: biochemical, Melampsora lini; conditions: MOPSO pH 7.0, 10 mM MgCl2, 0.05 mM MnCl2, room temperature, labelled compound
Experimental: radiochemical terpene synthase assay, hexane extraction on MliILTPS3 | the apparent Km values of MliILTPS2 and MliILTPS3 using FDP as substrate were determined

[2] = substrate: CC(C)=CCC/C(C)=C/CC/C(C)=C/CO[P@@](=O)(O)OP(=O)(O)O; assay: as above; format: biochemical, Melampsora lini; conditions: MOPSO pH 7.0, 10 mM MgCl2, 0.05 mM MnCl2, room temperature, labelled compound; remark: listed apart in the source
Experimental: radiochemical terpene synthase assay, hexane extraction on MliILTPS2 | the apparent Km values of MliILTPS2 and MliILTPS3 using FDP as substrate were determined

**Q.** With CC(C)=CCC/C(C)=C/CC/C(C)=C/COP(=O)(O)OP(=O)(O)O [FDP] as the molecule, how does the “radiochemical IDS assay, TLC” value (MlpGGDPS) read?
**A.** MlpGGDPS catalyzed the formation of GGDP using either DMADP, GDP, or FDP

**Q.** What about the “in vitro terpene synthase assay, SPME GC-MS” value (MliILTPS1; product (E)-nerolidol) of the same molecule?
**A.** both MliILTPS1 and MliILTPS3 converted FDP to (E)-nerolidol

**Q.** And the “radiochemical IDS assay, TLC” value (MliGGDPS)?
**A.** MliGGDPS was active with DMADP, GDP, and FDP to produce GGDP

**Q.** And the “in vitro terpene synthase assay, SPME GC-MS” value (MlpILTPS1; product (E,E)-alpha-farnesene)?
**A.** using FDP as substrate, MlpILTPS1 produced (E,E)-α-farnesene

**Q.** And the “in vitro terpene synthase assay, SPME GC-MS” value (MlpILTPS2; product (E)-nerolidol)?
**A.** MlpILTPS2 catalyzed the formation of (E)-nerolidol

**Q.** With CC(C)=CCC/C(C)=C/COP(=O)(O)OP(=O)(O)O [GDP] as the molecule, how does the “in vitro terpene synthase assay, SPME GC-MS” value (MliILTPS1; product linalool) read?
**A.** both MliILTPS1 and MliILTPS3 converted GDP to linalool

**Q.** What about the “in vitro terpene synthase assay, SPME GC-MS” value (MlpILTPS1; products (E)-beta-ocimene (major), linalool (minor)) of the same molecule?
**A.** When GDP was provided as a substrate, MlpILTPS1 produced (E)-β-ocimene as a major product

**Q.** What about the “in vitro terpene synthase assay, SPME GC-MS” value (MlpILTPS2; product linalool) of the same molecule?
**A.** In contrast, MlpILTPS2 produced only linalool

B1: MliILTPS3 (Melampsora lini) (protein)
chain: MSIYDDIFKQFPMIDEWSDSDEKILVEPYTYLGINTAKELPSMVTKAFNHWYQVPQPALDIILQIIGPIHAASLLLDDIQDDSDLRGGNPVAHKVYGVAQTINTATYVCFDAYHKVSQLTPFLKSPETTDLWSIINDEIAALHRGQGIELYWRDSLMCPTEEEYLRMIHNKTGAIFRLPIKLLQALSSVDSPPDCFPLLNIVGILFQIQNDISSLSPDFTKDKGFCEDFSEGKFSFPIIHSVKADSSNSLLMDILRLRPKDEATKRKALRFMKDQTKSLDHTFHVLCKLKKTAQEELEKLGGNSELSSILERIQVSPTPEIEDR
notes: full-length synthesized cDNA in pET-32a, N-terminal His-tag, E. coli BL21(DE3) pLysS
**Q.** What does the source list for B1?
**A.** Km [1]: 1.6 ± 0.2 µM; kcat [1]: 0.05 ± 0.004 s⁻¹

B2: MliILTPS2 (Melampsora lini) (protein)
chain: MSIYDDIFKQFPTIDEWSESNEKIMLEPYTHLGINTAKELPSMVTKAFNHWYQVPQPALDIILQIVGPIHAACLLIDDIQDDSDLRGGNPVAHKVYGVAQTINTATYVCFDAYHKISKLTPFSKSPETTDLWSIINDEIAALHRGQWIDLYWRDSLICPTEEEYLRMIHNKTGAIFRLPIKLLQALSPVDSPPDCFPLVNVVGILVQIRNDLLSLSPDFTKDKGFCEDFSEGKFSFPIIHSVKADSSNSLLIDILRLRPKDEPTKRKALRYMKDQTKSLDHTFDVLCKLEKTAKEELEKLGGNSELSSILELIQVSPIPEIADR
notes: as for B1
**Q.** With B2 as the molecule, how does the Km [2] read?
**A.** 1.9 ± 0.3 µM

**Q.** And the kcat [2]?
**A.** 0.01 ± 0.001 s⁻¹
